In brackets after ≈: the same amount, converted by molar mass.
How the values were obtained:
HepG2 [1] = assay: Cytotoxicity against Homo sapiens (human) HepG2 cells after 24 hr by MTT assay; assay type: functional, cell-based; conditions: HepG2, 24 h
HepG2 [2] = assay: Cytotoxicity against Homo sapiens (human) HepG2 cells assessed as cell survival at 0.0001 g/l after 24 hr by MTT assay (reference value: 78.07 +/- 1.89 to 95.31 +/- 3.09%); assay type: functional; conditions: HepG2, 24 h, read-out: Survival
HepG2 [3] = assay: Cytotoxicity against Homo sapiens (human) HepG2 cells assessed as cell survival at 0.01 g/l after 24 hr by MTT assay (reference value: 78.07 +/- 1.89 to 95.31 +/- 3.09%); assay type: functional; conditions: HepG2, 24 h, read-out: Survival
HepG2 [4] = assay: Cytotoxicity against Homo sapiens (human) HepG2 cells assessed as cell survival at 0.001 g/l after 24 hr by MTT assay (reference value: 78.07 +/- 1.89 to 95.31 +/- 3.09%); assay type: functional; conditions: HepG2, 24 h, read-out: Survival
HepG2 [5] = assay: Cytotoxicity against Homo sapiens (human) HepG2 cells assessed as cell survival at 0.1 g/l after 24 hr by MTT assay (reference value: 78.07 +/- 1.89 to 95.31 +/- 3.09%); assay type: functional; conditions: HepG2, 24 h, read-out: Survival

| SMILES | IC50 (HepG2 [1]) [µg/mL] | other results |
| --- | --- | --- |
| Cc1ccc(OCc2nn(CN(c3ccccc3)c3ccccc3)c(=S)n2/N=C/c2c[nH]nc2-c2ccc(Cl)cc2)cc1 | 97 (≈ 160 µM) |  |
| Cc1ccccc1OCc1nn(CN2CCOCC2)c(=S)n1/N=C/c1c[nH]nc1-c1ccc(Cl)cc1 | 54 (≈ 103 µM) |  |
| Cc1ccc(OCc2n[nH]c(=S)n2/N=C/c2c[nH]nc2-c2ccc(Cl)cc2)cc1 | 28 (≈ 65.9 µM) |  |
| S=c1[nH]nc(COc2ccccc2)n1/N=C/c1c[nH]nc1-c1ccc(Cl)cc1 | 18 (≈ 43.8 µM) |  |
| Cc1ccccc1OCc1n[nH]c(=S)n1/N=C/c1c[nH]nc1-c1ccc(F)cc1 | 48 (≈ 118 µM) |  |
| Cc1ccc(OCc2n[nH]c(=S)n2/N=C/c2c[nH]nc2-c2ccc(F)cc2)cc1 | 45 (≈ 110 µM) |  |
| CCc1n[nH]cc1/C=N/n1c(COc2ccc(C)cc2)n[nH]c1=S | > 100 |  |
| Cc1ccc(OCc2nn(CN3CCOCC3)c(=S)n2/N=C/c2c[nH]nc2-c2ccc(Cl)cc2)cc1 | 54 (≈ 103 µM) |  |
| Cc1ccc(OCc2nn(CN3CCOCC3)c(=S)n2/N=C/c2c[nH]nc2-c2ccc(F)cc2)cc1 | 34 (≈ 67 µM) |  |
| Fc1ccc(-c2n[nH]cc2/C=N/n2c(COc3ccccc3Cl)n[nH]c2=S)cc1 | 71 (≈ 166 µM) |  |
| COc1cccc2c1C(=O)c1c(O)c3c(c(O)c1C2=O)C[C@@](O)(C(=O)CO)C[C@@H]3O[C@H]1C[C@H](N)[C@H](O)[C@H](C)O1 [DOXORUBICIN] | 17 (≈ 31.3 µM) | viability at 0.1 µg/mL (HepG2 [2]): 90%; viability at 10 µg/mL (HepG2 [3]): 51.2%; viability at 1 µg/mL (HepG2 [4]): 74.2%; viability at 100 µg/mL (HepG2 [5]): 35.9% |
| Cc1ccc(OCc2nn(CN(c3ccccc3)c3ccccc3)c(=S)n2/N=C/c2c[nH]nc2-c2ccc(F)cc2)cc1 | 90 (≈ 153 µM) |  |
| Fc1ccc(-c2n[nH]cc2/C=N/n2c(COc3ccccc3)n[nH]c2=S)cc1 | 71 (≈ 180 µM) |  |
| Cc1ccccc1OCc1n[nH]c(=S)n1/N=C/c1c[nH]nc1-c1ccc(Cl)cc1 | 44 (≈ 104 µM) |  |

Reference: ChEMBL document CHEMBL3046085, “Synthesis, characterization and in vitro cytotoxic properties of some new Schiff and Mannich bases in Hep G2 cells” (Med Chem Res, 2011)
